US20250313808A1, “LIQUID CRYSTAL SCAFFOLDS AND USE THEREOF FOR ORGANOID, SPHEROID, AND 3D CELLAGGREGATE MANUFACTURING” (THE REGENTS OF THE UNIVERSITY OF CALIFORNIA, priority 2022, published 2025)

Experiment: Cell growth on CLC versus other substrates (FIG. 13)
Type: cell-based
Conditions: CLC compared to PDMS, agarose or cholesteryl oleyl carbonate substrates
Description: Varying ratio of mesogen were weighted to generate a scaffold with desirable phase transition. The mesogens were heated to the melt phase of about 80° C. and then pipetted onto surfaces to create CLC-coated substrates. The substrates were then placed in well plates cell culture media and cells were added to the substrates using traditional cell seeding techniques. The scaffold directed cellular organization once the scaffold was placed in the cell culture incubator with seeded cells on the surface.

## CCCCCCCC/C=C\CCCCCCCCOC(=O)O[C@H]1CC[C@@]2(C)C(=CC[C@H]3[C@@H]4CC[C@H]([C@H](C)CCCC(C)C)[C@@]4(C)CC[C@@H]32)C1 [cholesteryl oleyl carbonate]
  cell growth on substrate: cell growth was only observed on CLC substrate
